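Where inhibition never reached the appropriate level, the endpoint shown equals the highest concentration tested. Otherwise, values were interpolated linearly from a five-concentration, 48-hour dose response in 96-well plates. GI50 is the concentration that inhibits growth by half. Definition used: TGI = concentration required for complete inhibition of growth.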
Experiments:
Assay in all cases: NCI-60 cell line screen, 48 h
ACHN renal = tested on: ACHN renal
MCF7 breast = tested on: MCF7 breast
MDA-MB-435 = tested on: MDA-MB-435
OVCAR-8 ovarian = tested on: OVCAR-8 ovarian
SN12C renal = tested on: SN12C renal
SNB-19 CNS = tested on: SNB-19 CNS
SR leukemia = tested on: SR leukemia
SW-620 colon = tested on: SW-620 colon
T-47D breast = tested on: T-47D breast
NCI-H23 lung = tested on: NCI-H23 lung

SMILES	GI50 (ACHN renal)	TGI (ACHN renal)	GI50 (MCF7 breast)	TGI (MCF7 breast)	GI50 (MDA-MB-435)	TGI (MDA-MB-435)	GI50 (OVCAR-8 ovarian)	TGI (OVCAR-8 ovarian)	GI50 (SN12C renal)	TGI (SN12C renal)	GI50 (SNB-19 CNS)	TGI (SNB-19 CNS)	GI50 (SR leukemia)	TGI (SR leukemia)	GI50 (SW-620 colon)	TGI (SW-620 colon)	GI50 (T-47D breast)	TGI (T-47D breast)	GI50 (NCI-H23 lung)	TGI (NCI-H23 lung)
Fc1ccc(Nc2nc(Nc3ccc(-c4nc5ccccc5[nH]4)cc3)c3cn[nH]c3n2)cc1	2.05 µM	5.08 µM	1.74 µM	4.12 µM	1.71 µM	3.23 µM	2.37 µM	5.37 µM	1.99 µM	4.47 µM	3.16 µM	9.61 µM	2.22 µM	5.9 µM	2.03 µM	4.24 µM	1.9 µM	5 µM		
O=C(NCCNCCO)c1ccc(Nc2nc3ccccc3c3occc23)cc1	14.2 µM	27.3 µM	28 µM	> 100 µM	7.29 µM	22 µM	2.61 µM	16.2 µM	11.9 µM	24.6 µM	18.5 µM	49.5 µM			21.1 µM	43.1 µM	25.8 µM	90.2 µM	12.8 µM	26.4 µM
COc1cc(C(=O)O[C@H](C(=O)NCCCCNC(=O)[C@@H](OC(=O)c2cc(OC)cc3c(C)cccc23)[C@]2(C)CO2)[C@]2(C)CO2)c2cccc(C)c2c1	< 0.01 µM	< 0.01 µM	< 0.01 µM	< 0.0355 µM	0.144 µM	0.61 µM	0.0192 µM	0.206 µM	0.885 µM	2.39 µM	0.201 µM	2.31 µM			< 0.0111 µM		0.253 µM	1.74 µM	< 0.01 µM	0.118 µM
CCCCCCCCN=C(NCCCCCCCC)SCc1cccc2ccccc12			1.34 µM	2.8 µM	1.58 µM	3.03 µM	1.64 µM	3.11 µM	1.27 µM	2.63 µM	1.83 µM	3.45 µM	0.427 µM	2.39 µM	1.65 µM	3.36 µM	1.55 µM	3.01 µM	1.14 µM	2.52 µM
CCc1c(C)c2cc(-n3c(-c4ccc(OC)cc4)csc3=N)c(O)c(C)c2oc1=O	1.53 µM	3.6 µM	0.82 µM	3.07 µM	0.355 µM	4.16 µM	2.24 µM	8.28 µM	1.82 µM	4.89 µM	2.36 µM	8.86 µM			1.32 µM	3.28 µM	0.551 µM	4.24 µM	1.51 µM	5.16 µM
Cc1ccc(Nc2nc(-c3ccc(-c4ccc([N+](=O)[O-])cc4)o3)cs2)cc1		> 100 µM						> 100 µM		> 100 µM		> 100 µM		> 100 µM		> 100 µM				94.5 µM
Cc1cc(Br)ccc1N=Nc1c(C)nn(-c2ccccc2)c1-c1ccccc1		> 100 µM						> 100 µM		> 100 µM		> 100 µM		> 100 µM		> 100 µM				> 100 µM
CC1=C[C@@H]2c3c(c(O)c(O)c4oc5cc(O)cc(O)c5c(=O)c34)[C@@H](c3cc(O)c(O)c4oc5cc(O)cc(O)c5c(=O)c34)[C@@H]2C(C)(C)C1	4.25 µM	15.7 µM	1.89 µM	11 µM	3.49 µM	13.7 µM	4.31 µM	18.8 µM	3.91 µM	23 µM	2.76 µM	13 µM			3.48 µM	14.2 µM	4.6 µM	19.2 µM	3.33 µM	14.5 µM
O=C1[C@@H]2C(c3ccccc3[N+](=O)[O-])=NO[C@@H]2C(=O)N1c1ccc(Cc2ccc(N3C(=O)[C@H]4C(c5ccccc5[N+](=O)[O-])=NO[C@H]4C3=O)cc2)cc1		> 100 µM						> 100 µM		> 100 µM		> 100 µM		> 100 µM		> 100 µM				> 100 µM
CN(C)N=Nc1ccc(S(N)(=O)=O)cc1		> 100 µM						> 100 µM		> 100 µM		> 100 µM		> 100 µM		> 100 µM				> 100 µM
COc1ccc(C(=O)C(C(=O)C(=O)NCCCNC(=O)C(=O)C(C(=O)c2ccc(OC)cc2)c2ccc(OC)cc2)c2ccc(OC)cc2)cc1 (centres undefined)								> 100 µM				> 100 µM		> 100 µM		> 100 µM				> 100 µM
CSc1ccc(C(=O)/C=C/c2ccc(Cl)cc2Cl)cc1	23.7 µM	55.6 µM	3.68 µM	19.8 µM	26.3 µM	88.3 µM	20.3 µM	43.4 µM	42.9 µM	> 100 µM			0.351 µM	0.909 µM	22.2 µM	56 µM			21.9 µM	57.4 µM
Clc1ccc(-c2nc(NCc3ccco3)c3ccccc3n2)c(Cl)c1	7.81 µM	58.3 µM	6.38 µM	> 100 µM	16.1 µM	33.7 µM	24.2 µM	82.7 µM	16.1 µM	44.9 µM	38.4 µM	> 100 µM	10.1 µM	44.7 µM			45.6 µM	> 100 µM	17.1 µM	60.5 µM
CCN1C(=O)N(CC)C2C1N=C(SC)N2/N=C/C=C/c1ccccc1OC (centres undefined)	0.724 µM	> 49.3 µM	0.421 µM	> 39.4 µM			0.438 µM	> 45 µM	0.512 µM	> 43.5 µM	0.492 µM	> 39 µM	0.358 µM	13.2 µM	0.412 µM	> 100 µM	> 32.8 µM	> 58.8 µM	0.51 µM	> 38.8 µM
COc1cnccc1Nc1nc(-c2nn(Cc3c(F)cc(OCCO)cc3F)c3ccccc23)ncc1OC	11.9 µM	30.5 µM	1.65 µM	6.16 µM	1.73 µM	6.18 µM	2.03 µM	5.82 µM	1.53 µM	11.1 µM	2.23 µM	10.5 µM			1.99 µM	7.4 µM	16.5 µM	72.7 µM	2.25 µM	8.69 µM
COc1ccc2c(c1)[n+]([O-])c(-c1ccccc1Cl)c(N)[n+]2[O-]		> 100 µM						> 100 µM		> 100 µM		> 100 µM		> 100 µM		> 100 µM				> 100 µM
COc1cc(O)c(C(=O)/C=C/c2ccc(OC)c(OCc3ccccc3)c2)c(OC)c1		> 100 µM						> 100 µM		> 100 µM		> 100 µM		> 100 µM		> 100 µM				> 100 µM
